Experimental data from US20110124626A1, “BENZAZEPINE DERIVATIVES AND THEIR USE AS HISTAMINE H3 ANTAGONISTS” (TAKEDA PHARMACEUTICAL COMPANY LIMITED, priority 2008, published 2011).
pIC50: −log10 of the molar value.

Biological target: T1, human H3 receptor (Homo sapiens, UniProt Q9Y5N1)
T1 construct: expressed in transfected cells
Assay: In vitro H3 binding assay (3H-N-α-methyl-histamine competition binding)
Settings: membranes of CHO-K1 cells expressing human H3 receptor; 2 nM 3H-NαMH; read-out: hH3 binding IC50
Protocol: The ability of compounds to bind to the H3 receptor was determined by measuring the reduction in tritiated N-α-methyl-histamine (^3H—NαMH) binding in a competition binding assay. Changes in the levels of bound radio-label were monitored by scintillation counting with a Trilux Microbeta (Perkin Elmer).
Membranes were prepared from CHO-K1 cells stably expressing human H3 receptor; routinely grown as monolayers in Ham's F12 medium (Invitrogen) supplemented with 10% Foetal Clone 111 (Hyclone), 500 μg/ml G418 (Invitrogen), 5 μg/ml blasticidine S (Invivogen) and […] Gentamicin (Sigma) in 5% CO2 at 37° C. Cells were grown to 80-95% confluency, rinsed once with 1×PBS (Invitrogen) and detached by incubating with 1×PBS containing 0.02% EDTA (Sigma) for 10 minutes at room temperature. Cells were collected by centrifugation at 900×g, 4° C. for 10 minutes. Cells were rinsed once with 1×PBS and re-suspended in ice cold homogenisation buffer (50 mM Tris-HCl (pH 7.4), 2.5 mM EDTA, 5 mM MgCl2, 200 mM Sucrose) at 1×10^7 cells/ml and kept on ice. Cells were homogenised on ice and debris removed by centrifugation at 500×g, 4° C. for 5 minutes. The resulting supernatant was centrifuged at 75,600×g, 4° C. for 60 minutes. Membranes were suspended in homogenisation buffer, protein concentration was determined (BCA Protein Assay kit (Pierce)), diluted to 2.2 mg/ml, dispensed into 1 ml aliquots and stored at −80° C.
Membranes were thawed on ice, sonicated with 4 cycles of 20 pulses (50% amplitude, 0.5 pulse) (UP200S Hielscher) on ice, diluted in assay buffer (50 mM Tris-HCl (pH7.4), 5 mM MgCl2) to 62.5 μg/ml. Compound was serially diluted in DMSO before being diluted 1:10 with assay buffer. 5 μg of membrane in 80 μl of assay buffer was added per well of a 96 well polystyrene plate (Corning). […] of compound was added per well. The assay was initiated by the addition of 10 μl of 20 nM ^3H—NαMH per well and incubated for one hour at room temperature with shaking. Total binding was determined in the presence of 1% DMSO and non-specific binding was determined by the inclusion of 1 μM R-α-methyl-histamine (RαMH). Incubations were then filtered through filtermat A (Perkin Elmer) and washed three times with assay buffer. Filtermats were dried at 42° C. for two hours, scintillant added and the level of bound radioactivity determined.
IC50 values for compounds were determined from seven point log scale dose-response studies and represent the concentration of compound required to inhibit 50% of the specific binding of 2 nM ^3H—NαMH (difference between total and non-specific binding). Curves were generated using the average of duplicate wells for each data point and analyzed using nonlinear regression of sigmoidal dose response (variable slope).

T1 sequence (Q9Y5N1 whole entry): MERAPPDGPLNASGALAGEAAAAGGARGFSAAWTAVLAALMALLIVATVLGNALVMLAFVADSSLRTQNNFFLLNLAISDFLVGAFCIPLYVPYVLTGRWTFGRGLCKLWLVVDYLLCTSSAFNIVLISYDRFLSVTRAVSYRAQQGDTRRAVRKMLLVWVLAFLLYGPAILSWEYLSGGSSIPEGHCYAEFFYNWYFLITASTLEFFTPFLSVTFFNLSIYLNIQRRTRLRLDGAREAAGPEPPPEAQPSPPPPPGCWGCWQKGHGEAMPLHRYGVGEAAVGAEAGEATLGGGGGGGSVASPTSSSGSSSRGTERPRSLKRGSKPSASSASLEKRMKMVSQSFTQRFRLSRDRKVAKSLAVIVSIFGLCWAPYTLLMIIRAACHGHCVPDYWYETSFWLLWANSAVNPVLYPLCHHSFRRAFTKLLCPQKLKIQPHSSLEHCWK

SMILES	pIC50
O=C(NCc1ccccc1)c1ccc2c(c1)CCN(C1CCCC1)CC2 [Example 19, N-Benzyl-3-cyclopentyl-2,3,4,5-tetrahydro-1H-benzo[d]azepine-7-carboxamide]	7.70
O=C(NCc1ccncc1)c1ccc2c(c1)CCN(C1CCCC1)CC2 [Example 21, 3-Cyclopentyl-N-(pyridin-4-ylmethyl)-2,3,4,5-tetrahydro-1H-benzo[d]azepine-7-carboxamide]	7.89
CC(C)NC(=O)c1ccc2c(c1)CCN(C1CCC1)CC2 [Example 26, 3-Cyclobutyl-N-isopropyl-2,3,4,5-tetrahydro-1H-benzo[d]azepine-7-carboxamide]	7.44
O=C(NC1CCC1)c1ccc2c(c1)CCN(C1CCC1)CC2 [Example 27, N,3-Dicyclobutyl-2,3,4,5-tetrahydro-1H-benzo[d]azepine-7-carboxamide]	7.68
O=C(NCC1CCCC1)c1ccc2c(c1)CCN(C1CCC1)CC2 [Example 30, 3-Cyclobutyl-N-(cyclopentylmethyl)-2,3,4,5-tetrahydro-1H-benzo[d]azepine-7-carboxamide]	8.30
COc1ccc(CNC(=O)c2ccc3c(c2)CCN(C2CCC2)CC3)cc1 [Example 49, 3-Cyclobutyl-N-(4-methoxybenzyl)-2,3,4,5-tetrahydro-1H-benzo[d]azepine-7-carboxamide]	7.47
COC(=O)c1ccc(CNC(=O)c2ccc3c(c2)CCN(C2CCC2)CC3)cc1 [Example 50, Methyl 4-((3-cyclobutyl-2,3,4,5-tetrahydro-1H-benzo[d]azepine-7-carboxamido)methyl)benzoate]	7.62
O=C(NCc1ccccc1Br)c1ccc2c(c1)CCN(C1CCC1)CC2 [Example 54, N-(2-Bromobenzyl)-3-cyclobutyl-2,3,4,5-tetrahydro-1H-benzo[d]azepine-7-carboxamide]	8.00
O=C(NCc1ccccc1C(F)(F)F)c1ccc2c(c1)CCN(C1CCC1)CC2 [Example 57, 3-Cyclobutyl-N-(2-(trifluoromethyl)benzyl)-2,3,4,5-tetrahydro-1H-benzo[d]azepine-7-carboxamide]	7.92
O=C(NCc1cccc(Cl)c1)c1ccc2c(c1)CCN(C1CCC1)CC2 [Example 65, N-(3-Chlorobenzyl)-3-cyclobutyl-2,3,4,5-tetrahydro-1H-benzo[d]azepine-7-carboxamide]	8.40
O=C(NCc1ccc(Cl)cc1)c1ccc2c(c1)CCN(C1CCC1)CC2 [Example 67, N-(4-Chlorobenzyl)-3-cyclobutyl-2,3,4,5-tetrahydro-1H-benzo[d]azepine-7-carboxamide]	7.96
O=C(NCc1cc(-c2cccs2)on1)c1ccc2c(c1)CCN(C1CCC1)CC2 [Example 84, 3-Cyclobutyl-N-((5-(thiophen-2-yl)isoxazol-3-yl)methyl)-2,3,4,5-tetrahydro-1H-benzo[d]azepine-7-carboxamide]	8.00
Cc1oc(-c2ccccc2)nc1CNC(=O)c1ccc2c(c1)CCN(C1CCC1)CC2 [Example 85, 3-Cyclobutyl-N-((5-methyl-2-phenyloxazol-4-yl)methyl)-2,3,4,5-tetrahydro-1H-benzo[d]azepine-7-carboxamide]	7.85
O=C(NCc1ccoc1)c1ccc2c(c1)CCN(C1CCC1)CC2 [Example 89, 3-Cyclobutyl-N-(furan-3-ylmethyl)-2,3,4,5-tetrahydro-1H-benzo[d]azepine-7-carboxamide]	7.74
Cc1occc1CNC(=O)c1ccc2c(c1)CCN(C1CCC1)CC2 [Example 90, 3-cyclobutyl-N-((2-methylfuran-3-yl)methyl)-2,3,4,5-tetrahydro-1H-benzo[d]azepine-7-carboxamide]	8.00
Cc1nc(CNC(=O)c2ccc3c(c2)CCN(C2CCC2)CC3)c(C)o1 [Example 93, 3-cyclobutyl-N-((2,5-dimethyloxazol-4-yl)methyl)-2,3,4,5-tetrahydro-1H-benzo[d]azepine-7-carboxamide]	7.54
CCn1cc(CNC(=O)c2ccc3c(c2)CCN(C2CCC2)CC3)cn1 [Example 95, 3-Cyclobutyl-N-((1-ethyl-1H-pyrazol-4-yl)methyl)-2,3,4,5-tetrahydro-1H-benzo[d]azepine-7-carboxamide]	7.74
Cc1nn(C)c(C)c1CNC(=O)c1ccc2c(c1)CCN(C1CCC1)CC2 [Example 96, 3-Cyclobutyl-N-((1,3,5-trimethyl-1H-pyrazol-4-yl)methyl)-2,3,4,5-tetrahydro-1H-benzo[d]azepine-7-carboxamide]	7.74
CCn1cc(CNC(=O)c2ccc3c(c2)CCN(C2CCC2)CC3)c(C)n1 [Example 99, 3-Cyclobutyl-N-((1-ethyl-3-methyl-1H-pyrazol-4-yl)methyl)-2,3,4,5-tetrahydro-1H-benzo[d]azepine-7-carboxamide]	7.74
Cn1ncc(Cl)c1CNC(=O)c1ccc2c(c1)CCN(C1CCC1)CC2 [Example 102, N-((4-chloro-1-methyl-1H-pyrazol-5-yl)methyl)-3-cyclobutyl-2,3,4,5-tetrahydro-1H-benzo[d]azepine-7-carboxamide]	7.74
Cn1nc(-c2cccs2)cc1CNC(=O)c1ccc2c(c1)CCN(C1CCC1)CC2 [Example 109, 3-Cyclobutyl-N-((1-methyl-3-(thiophen-2-yl)-1H-pyrazol-5-yl)methyl)-2,3,4,5-tetrahydro-1H-benzo[d]azepine-7-carboxamide]	8.70
Cc1nn(-c2ccccc2)c(C)c1CNC(=O)c1ccc2c(c1)CCN(C1CCC1)CC2 [Example 110, 3-Cyclobutyl-N-((3,5-dimethyl-1-phenyl-1H-pyrazol-4-yl)methyl)-2,3,4,5-tetrahydro-1H-benzo[d]azepine-7-carboxamide]	7.77
O=C(NCc1ncc[nH]1)c1ccc2c(c1)CCN(C1CCC1)CC2 [Example 113, N-((1H-Imidazol-2-yl)methyl)-3-cyclobutyl-2,3,4,5-tetrahydro-1H-benzo[d]azepine-7-carboxamide]	7.89

More lines, now with the values ahead:

pIC50	SMILES
7.52	O=C(NCC1CCN(C2CCC2)CC1)c1ccc2c(c1)CCN(C1CCC1)CC2 [Example 11, 3-Cyclobutyl-N-((1-cyclobutylpiperidin-4-yl)methyl)-2,3,4,5-tetrahydro-1H-benzo[d]azepine-7-carboxamide]
7.43	CCNC(=O)c1ccc2c(c1)CCN(C1CCC1)CC2 [Example 25, 3-Cyclobutyl-N-ethyl-2,3,4,5-tetrahydro-1H-benzo[d]azepine-7-carboxamide]
8.05	O=C(NCCc1ccccc1)c1ccc2c(c1)CCN(C1CCC1)CC2 [Example 38, 3-Cyclobutyl-N-phenethyl-2,3,4,5-tetrahydro-1H-benzo[d]azepine-7-carboxamide]
7.89	O=C(NCc1ccccn1)c1ccc2c(c1)CCN(C1CCC1)CC2 [Example 45, 3-Cyclobutyl-N-(pyridin-2-ylmethyl)-2,3,4,5-tetrahydro-1H-benzo[d]azepine-7-carboxamide]
8.22	O=C(NCc1ccccc1Cl)c1ccc2c(c1)CCN(C1CCC1)CC2 [Example 63, N-(2-Chlorobenzyl)-3-cyclobutyl-2,3,4,5-tetrahydro-1H-benzo[d]azepine-7-carboxamide]
7.82	Cn1ccc2cc(CNC(=O)c3ccc4c(c3)CCN(C3CCC3)CC4)ccc21 [Example 75, 3-Cyclobutyl-N-((1-methyl-1H-indol-5-yl)methyl)-2,3,4,5-tetrahydro-1H-benzo[d]azepine-7-carboxamide]
8.40	O=C(NCc1cccs1)c1ccc2c(c1)CCN(C1CCC1)CC2 [Example 87, 3-Cyclobutyl-N-(thiophen-2-ylmethyl)-2,3,4,5-tetrahydro-1H-benzo[d]azepine-7-carboxamide]
8.22	Cc1cc(CNC(=O)c2ccc3c(c2)CCN(C2CCC2)CC3)c(C)o1 [Example 91, 3-cyclobutyl-N-((2,5-dimethylfuran-3-yl)methyl)-2,3,4,5-tetrahydro-1H-benzo[d]azepine-7-carboxamide]
7.82	Cc1nn(C)cc1CNC(=O)c1ccc2c(c1)CCN(C1CCC1)CC2 [Example 98, 3-Cyclobutyl-N-((1,3-dimethyl-1H-pyrazol-4-yl)methyl)-2,3,4,5-tetrahydro-1H-benzo[d]azepine-7-carboxamide]
7.89	CCn1cc(Cl)c(CNC(=O)c2ccc3c(c2)CCN(C2CCC2)CC3)n1 [Example 106, N-((4-chloro-1-ethyl-1H-pyrazol-3-yl)methyl)-3-cyclobutyl-2,3,4,5-tetrahydro-1H-benzo[d]azepine-7-carboxamide]
